Read-outs that look alike come from different tables or passages of the source.
Biological target: T1, Human FXR full length (Homo sapiens, UniProt Q96RI1)
T1 construct: Human FXR full length and RXR full length was obtained from Ronald Evans' laboratory; expressed in transfected cells; host or cells: CV-1 cells
T1 sequence (Q96RI1 1-476 isoform Q96RI1-1): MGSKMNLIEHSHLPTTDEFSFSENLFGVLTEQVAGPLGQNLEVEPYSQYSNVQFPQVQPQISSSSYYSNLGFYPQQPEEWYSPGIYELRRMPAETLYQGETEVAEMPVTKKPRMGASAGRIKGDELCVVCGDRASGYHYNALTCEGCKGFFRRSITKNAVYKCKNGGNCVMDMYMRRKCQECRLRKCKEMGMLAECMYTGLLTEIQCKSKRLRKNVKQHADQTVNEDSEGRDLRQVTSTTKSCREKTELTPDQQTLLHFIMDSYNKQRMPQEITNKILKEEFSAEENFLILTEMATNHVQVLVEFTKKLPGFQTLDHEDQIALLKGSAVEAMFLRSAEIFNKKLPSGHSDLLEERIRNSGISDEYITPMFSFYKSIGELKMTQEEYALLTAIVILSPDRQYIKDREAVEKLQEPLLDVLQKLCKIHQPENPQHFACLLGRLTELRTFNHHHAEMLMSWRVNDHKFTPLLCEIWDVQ
T1 sequence (P19793 1-462 partner): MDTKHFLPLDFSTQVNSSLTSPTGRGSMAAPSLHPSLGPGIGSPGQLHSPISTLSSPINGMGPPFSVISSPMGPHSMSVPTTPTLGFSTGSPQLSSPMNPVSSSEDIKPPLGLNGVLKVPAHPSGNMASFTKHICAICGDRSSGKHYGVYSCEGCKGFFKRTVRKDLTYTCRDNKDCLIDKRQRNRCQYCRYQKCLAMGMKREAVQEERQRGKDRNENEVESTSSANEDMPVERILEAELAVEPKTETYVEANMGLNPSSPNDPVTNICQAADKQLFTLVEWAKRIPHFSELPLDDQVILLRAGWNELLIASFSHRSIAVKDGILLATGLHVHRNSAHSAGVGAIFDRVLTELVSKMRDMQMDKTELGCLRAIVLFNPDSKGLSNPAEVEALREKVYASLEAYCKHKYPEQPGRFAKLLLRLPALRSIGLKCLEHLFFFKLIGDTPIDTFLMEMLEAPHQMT
Test: FXR activity screen, luciferase reporter in transfected CV-1 cells
Type: cell-based
Experimental: CV-1 cells were grown in DMEM+10% charcoal stripped FCS. Cells were seeded into 384-well plates the day before transfection to give a confluency of 50-80% at transfection. A total of […] DNA containing 0.32 micrograms pCMX-hFXRfl, 0.32 micrograms pCMX-hRXRfl, 0.1 micrograms pCMXβGal, 0.08 micrograms pGLFXRE reporter and 0.02 micrograms pCMX empty vector was transfected per well using FuGene transfection reagent according to the manufacturer's instructions (Roche). Cells were allowed to express protein for 48 hours followed by addition of compound.
Human FXR full length and RXR full length was obtained from Ronald Evans' laboratory and PCR amplification of the hFXR cDNA and the hRXR cDNA was performed. The amplified cDNAs was cloned into the vector pCMX generating the plasmids pCMX-hFXRfl and pCMX-hRXRfl. Ensuing fusions were verified by sequencing. The pCMXMH2004 luciferase reporter contains multiple copies of the GAL4 DNA response element under a minimal eukaryotic promoter (Hollenberg and Evans, 1988). pCMXβGal was generated in the Evans laboratory, Salk Institute.
All compounds were dissolved in DMSO and diluted 1:1000 upon addition to the cells. Compounds were tested in quadruple in concentrations ranging from 0.001 to 100 μM. Cells were treated with compound for 24 hours followed by luciferase assay. Each compound was tested in at least two separate experiments.
Medium including test compound was aspirated and washed with PBS. 50 μL PBS including 1 mM Mg^2+ and Ca^2+ were then added to each well. The luciferase assay was performed using the LucLite kit according to the manufacturer's instructions (Packard Instruments). Light emission was quantified by counting on a Perkin Elmer Envision reader. To measure […] activity 25 μL supernatant from each transfection lysate was transferred to a new 384 microplate. Beta-galactosidase assays were performed in the microwell plates using a kit from Promega and read in a Perkin Elmer Envision reader. The beta-galactosidase data were used to normalize (transfection efficiency, cell growth etc.) the luciferase data.
The activity of a compound is calculated as fold induction compared to an untreated sample. For each compound the efficacy (maximal activity) is given as a relative activity compared to Fexaramine, a FXR agonist. The EC50 is the concentration giving 50% of maximal observed activity. EC50 values were calculated via non-linear regression using GraphPad PRISM (GraphPad Software, San Diego, Calif.).

[1] = first round, CV-1 cells, 24 hours, read-out: 1st RND EC50
[2] = second round, CV-1 cells, 24 hours, read-out: 2nd RND EC50
[3] = retest, read-out: EC50 (retested)

EC50 [1] [µM] | EC50 [2] [µM] | EC50 [3] [µM] | SMILES
0.119 | 0.146 | – | [2H]C(c1ccc(-c2ccc3c(cnn3C)c2)cc1Cl)N(C(=O)[C@@H]1C[C@@H]2CC[C@H]1C2)c1cncc(/C=C/C(=O)OC)c1 (stereo partly shown) [NSSK00073]
155 | 653 | – | COC(=O)/C=C/c1cccc(N(Cc2ccc(-c3ccc4c(cnn4C)c3)cc2Cl)C(=O)C2CCN(C)CC2)c1 [NSSK00075]
0.698 | 0.673 | – | COC(=O)/C=C/c1cncc(N(Cc2ccc(-c3ccc(N(C)C)cc3)cc2F)C(=O)C2CCCCC2)c1 [NSSK00078]
0.513 | 0.605 | – | [2H]C(c1ccc(-c2ccc(N(C)C)cc2)cc1F)N(C(=O)c1ccccc1)c1cccc(/C=C/C(=O)OC)c1 (stereo not shown) [NSSK00079]
0.623 | 0.61 | – | COC(=O)/C=C/c1cccc(N(Cc2ccc(-c3ccc(N(C)C)cc3)cc2Cl)C(=O)C2CCCCC2)c1 [NSSK00080]
22.8 | 71 | – | COC(=O)/C=C/c1cncc(N(Cc2ccc(-c3ccc(N(C)C)cc3)cc2Cl)C(=O)c2ccccc2)c1 [NSSK00081]
5.1 | 6.1 | – | COC(=O)/C=C/c1cncc(N(Cc2ccc(-c3ccc(N(C)C)cc3)cc2Cl)C(=O)[C@@H]2C[C@@H]3CC[C@H]2C3)c1 [NSSK00082]
3.6 | 4.7 | – | COC(=O)/C=C/c1cc(F)cc(N(Cc2ccc(-c3ccc4c(cnn4C)c3)cc2)C(=O)C2CCCCC2)c1 [NSSK00084]
0.371 | 1.6 | – | [2H]C(c1ccc(-c2ccc3c(cnn3C)c2)cc1)N(C(=O)[C@@H]1C[C@@H]2CC[C@H]1C2)c1cccc(/C=C/C(=O)OC)c1 (stereo partly shown) [NSSK00086]
0.383 | 0.406 | 0.366 | [2H]C(c1ccc(-c2ccc3c(cnn3C)c2)cc1F)N(C(=O)C1CCCCC1)c1cccc(/C=C/C(=O)OC)c1 (stereo not shown) [NSSK00089, methyl (E)-3-(3-(N-((2-fluoro-4-(1-methyl-1H-indazol-5-yl)phenyl)methyl-d)cyclohexanecarboxamido)phenyl)acrylate]
0.801 | 0.628 | – | COC(=O)/C=C/c1cccc(N(Cc2ccc(-c3ccc4c(cnn4C)c3)cc2Cl)C(=O)C2CCCCC2)c1 [NSSK00091]
3.4 | 5.5 | – | COC(=O)/C=C/c1cncc(N(Cc2ccc(-c3ccc4c(cnn4C)c3)cc2Cl)C(=O)c2ccccc2)c1 [NSSK00092]
0.459 | 0.511 | – | [2H]C(c1ccc(-c2ccc3c(cnn3C)c2)cc1F)N(C(=O)c1ccccc1)c1cccc(/C=C/C(=O)OC)c1 (stereo not shown) [NSSK00093]
0.786 | 0.865 | – | [2H]C(c1ccc(-c2ccc3c(cnn3C)c2)cc1Cl)N(C(=O)[C@@H]1C[C@@H]2CC[C@H]1C2)c1cc(F)cc(/C=C/C(=O)OC)c1 (stereo partly shown) [NSSK00094]
1.4 | 1.5 | – | [2H]C(c1ccc(-c2ccc3c(cnn3C)c2)cc1Cl)N(C(=O)C1CCCCC1)c1cncc(/C=C/C(=O)OC)c1 (stereo not shown) [NSSK00095]
0.34 | 0.375 | 0.22 | [2H]C(c1ccc(-c2ccc3c(cnn3C)c2)cc1)N(C(=O)C1CCCCC1)c1cc(F)cc(/C=C/C(=O)OC)c1 (stereo not shown) [NSSK00096, methyl (E)-3-(3-fluoro-5-(N-((4-(1-methyl-1H-indazol-5-yl)phenyl)methyl-d)cyclohexanecarboxamido)phenyl)acrylate]
0.866 | 0.726 | – | COC(=O)/C=C/c1cc(F)cc(N(Cc2ccc(-c3ccc4c(cnn4C)c3)cc2Cl)C(=O)C2CCCCC2)c1 [NSSK00097]
0.655 | 0.67 | – | COC(=O)/C=C/c1cccc(N(Cc2ccc(-c3ccc4c(cnn4C)c3)cc2Cl)C(=O)c2ccccc2)c1 [NSSK00098]

EC50 [1] [µM] | EC50 [2] [µM] | EC50 [3] [µM] | SMILES
2.1 | 2.1 | – | COC(=O)/C=C/c1cc(F)cc(N(Cc2ccc(-c3ccc4c(cnn4C)c3)cc2F)C(=O)c2ccccc2)c1 [NSSK00099]
1.4 | 1.8 | – | COC(=O)/C=C/c1cc(F)cc(N(Cc2ccc(-c3ccc4c(cnn4C)c3)cc2Cl)C(=O)c2ccccc2)c1 [NSSK00100]
5.9 | 15.1 | – | [2H]C(c1ccc(-c2ccc3c(cnn3C)c2)cc1Cl)N(C(=O)c1ccccc1)c1cncc(/C=C/C(=O)OC)c1 (stereo not shown) [NSSK00101]
0.252 | 0.328 | – | COC(=O)/C=C/c1cc(F)cc(N(Cc2ccc(-c3ccc(N(C)C)cc3)cc2)C(=O)[C@@H]2C[C@@H]3CC[C@H]2C3)c1 [NSSK00102]
0.308 | 1 | – | COC(=O)/C=C/c1cc(F)cc(N(Cc2ccc(-c3ccc(N(C)C)cc3)cc2Cl)C(=O)c2ccccc2)c1 [NSSK00103]
0.227 | 0.547 | – | [2H]C(c1ccc(-c2ccc(N(C)C)cc2)cc1Cl)N(C(=O)[C@@H]1C[C@@H]2CC[C@H]1C2)c1cc(F)cc(/C=C/C(=O)OC)c1 (stereo partly shown) [NSSK00104]
0.45 | 0.861 | – | [2H]C(c1ccc(-c2ccc(N(C)C)cc2)cc1)N(C(=O)[C@@H]1C[C@@H]2CC[C@H]1C2)c1cccc(/C=C/C(=O)OC)c1 (stereo partly shown) [NSSK00107]
– | 0.497 | – | [2H]C(c1ccc(-c2ccc(N(C)C)cc2)cc1F)N(C(=O)c1ccccc1)c1cc(F)cc(/C=C/C(=O)OC)c1 (stereo not shown) [NSSK00108]
0.19 | 0.316 | – | [2H]C(c1ccc(-c2ccc(N(C)C)cc2)cc1F)N(C(=O)C1CCCCC1)c1cc(F)cc(/C=C/C(=O)OC)c1 (stereo not shown) [NSSK00109]
0.0601 | 0.174 | 0.046 | [2H]C(c1ccc(-c2ccc(N(C)C)cc2)cc1F)N(C(=O)[C@@H]1C[C@@H]2CC[C@H]1C2)c1cc(F)cc(/C=C/C(=O)OC)c1 (stereo partly drawn) [NSSK00110, methyl (E)-3-(3-((1S,2R,4R)—N-((4′-(dimethylamino)-3-fluoro-[1,1′-biphenyl]-4-yl)methyl-d)bicyclo[2.2.1]heptane-2-carboxamido)-5-fluorophenyl)acrylate]
0.652 | 2.7 | – | [2H]C(c1ccc(-c2ccc3c(cnn3C)c2)cc1)N(C(=O)[C@@H]1C[C@@H]2CC[C@H]1C2)c1cc(F)cc(/C=C/C(=O)OC)c1 (stereo partly shown) [NSSK00113]
0.264 | 0.614 | – | [2H]C(c1ccc(-c2ccc(N(C)C)cc2)cc1)N(C(=O)c1ccccc1)c1cc(F)cc(/C=C/C(=O)OC)c1 (stereo not shown) [NSSK00114]
– | 2 | – | COC(=O)/C=C/c1cncc(N(Cc2ccc(-c3ccc(N(C)C)cc3)cc2F)C(=O)[C@@H]2C[C@@H]3CC[C@H]2C3)c1 [NSSK00115]
– | 8.6 | – | [2H]C(c1ccc(-c2ccc(N(C)C)cc2)cc1F)N(C(=O)c1ccccc1)c1cncc(/C=C/C(=O)OC)c1 (stereo not shown) [NSSK00116]
0.983 | 1.3 | – | COC(=O)/C=C/c1cc(F)cc(N(Cc2ccc(-c3ccc(N(C)C)cc3)cc2Cl)C(=O)C2CCCCC2)c1 [NSSK00117]
7 | 55 | – | COC(=O)/C=C/c1cncc(N(Cc2ccc(-c3ccc4c(cnn4C)c3)cc2)C(=O)c2ccccc2)c1 [NSSK00118]
0.798 | 65 | – | [2H]C(c1ccc(-c2ccc3c(cnn3C)c2)cc1)N(C(=O)c1ccccc1)c1cncc(/C=C/C(=O)OC)c1 (stereo not shown) [NSSK00119]
